Source: patent US10906915B2, “Substituted pyrazoloazepin-4-ones and their use as phosphodiesterase inhibitors” (LEO Pharma A/S, priority 2016, dated 2021)

Biological target: human PDE4D catalytic domain (UniProt no. Q08499) (Homo sapiens (Human), UniProt Q08499)
Assay: PDE4 assay (TR-FRET, FAM-cAMP cleavage)
Type: biochemical
Details: human PDE4D catalytic domain; molar concentration giving 50% inhibition of substrate cleavage; read-out: PDE4 IC50 range
Method: The human PDE4D catalytic domain (UniProt no. Q08499 [[…]]) was incubated with a mixture of non-labelled cAMP (cyclic adenosine monophosphate) and fluorescein amidite (FAM) conjugated cAMP and titrated test or reference compound. Following brief incubation the enzymatic reaction was stopped by addition of binding buffer containing nanoparticles with immobilized trivalent metal ions capable of binding 1) AMP phospho groups and 2) terbium (Tb) donor fluorophores. Subsequent excitation of the Tb donor triggers time-resolved FRET to adjacent FAM acceptor molecules resulting in light emission. In the presence of a PDE4 inhibitor, AMP generation was reduced resulting in a lower fluorescence signal. The cAMP phosphodiester is not bound by the detection system.
The results were calculated as the molar concentrations resulting in 50% inhibition of the substrate cleavage compared to controls samples, and are expressed as a range of IC50 (nM).

human PDE4D catalytic domain, sequence (Q08499 380-740 limits assumed): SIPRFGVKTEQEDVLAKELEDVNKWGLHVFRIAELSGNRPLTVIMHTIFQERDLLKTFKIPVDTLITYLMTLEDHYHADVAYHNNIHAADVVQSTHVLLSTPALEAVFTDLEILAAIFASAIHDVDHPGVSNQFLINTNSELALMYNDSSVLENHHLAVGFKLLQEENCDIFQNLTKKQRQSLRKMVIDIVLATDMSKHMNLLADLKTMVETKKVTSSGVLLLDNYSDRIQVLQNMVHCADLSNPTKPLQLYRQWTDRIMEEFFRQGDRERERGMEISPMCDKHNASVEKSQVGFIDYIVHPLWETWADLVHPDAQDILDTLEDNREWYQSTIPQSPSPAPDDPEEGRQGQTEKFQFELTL

`CCc1nn(CCCOC(=O)c2ccc(C)cc2)c2c1C(=O)NCC1(CCOCC1)C2` [Example 1, 3-(3-Ethyl-4-oxo-spiro[6,8-dihydro-5H-pyrazolo[4,3-c]azepine-7,4′-tetrahydropyran]-1-yl)propyl 4-methylbenzoate] and `CCc1nn(CCCOC(=O)c2ccc(F)cc2)c2c1C(=O)NCC1(CCOCC1)C2` [Example 20, 3-(3-ethyl-4-oxo-spiro[6,8-dihydro-5H-pyrazolo[4,3-c]azepine-7,4′-tetrahydropyran]-1-yl)propyl 4-fluorobenzoate] cannot be ordered by IC50: under 0.1 µM for the first, under 0.1 µM for the second.

`CCc1ccc(C(=O)OCCCn2nc(CC)c3c2CC2(CCOCC2)CNC3=O)cc1` [Example 2, 3-(3-Ethyl-4-oxo-spiro[6,8-dihydro-5H-pyrazolo[4,3-c]azepine-7,4′-tetrahydropyran]-1-yl)propyl 4-ethylbenzoate] and `CCc1nn(CCCOC(=O)c2ccc(C#N)cc2)c2c1C(=O)NCC1(CCOCC1)C2` [Example 24, 3-(3-ethyl-4-oxo-spiro[6,8-dihydro-5H-pyrazolo[4,3-c]azepine-7,4′-tetrahydropyran]-1-yl)propyl 4-cyanobenzoate] cannot be ordered by IC50: under 0.1 µM for the first, under 0.1 µM for the second.

`CCc1nn(C[C@@H](C)COC(=O)c2ccc(S(=O)(=O)NC)cc2)c2c1C(=O)NCC1(CCOCC1)C2` [Example 3, [(2R)-3-(3-Ethyl-4-oxo-spiro[6,8-dihydro-5H-pyrazolo[4,3-c]azepine-7,4′-tetrahydro-pyran]-1-yl)-2-methyl-propyl] 4-(methylsulfamoyl)benzoate] and `CCc1nn(C[C@@H](C)COC(=O)c2ccc(S(C)(=O)=O)cc2)c2c1C(=O)NCC1(CCOCC1)C2` [Example 5, [(2R)-3-(3-ethyl-4-oxo-spiro[6,8-dihydro-5H-pyrazolo[4,3-c]azepine-7,4′-tetrahydro-pyran]-1-yl)-2-methyl-propyl] 4-methylsulfonylbenzoate] cannot be ordered by IC50: under 0.1 µM for the first, under 0.1 µM for the second.

`CCc1nn(C[C@@H](C)COC(=O)c2ccc(S(=O)(=O)N(C)C)cc2)c2c1C(=O)NCC1(CCOCC1)C2` [Example 4, [(2R)-3-(3-Ethyl-4-oxo-spiro[6,8-dihydro-5H-pyrazolo[4,3-c]azepine-7,4′-tetrahydro-pyran]-1-yl)-2-methyl-propyl] 4-(dimethylsulfamoyl)benzoate] and `CCc1nn(CCCOC(=O)c2cccc(C)c2)c2c1C(=O)NCC1(CCOCC1)C2` [Example 15, 3-(3-ethyl-4-oxo-spiro[6,8-dihydro-5H-pyrazolo[4,3-c]azepine-7,4′-tetrahydropyran]-1-yl)propyl 3-methylbenzoate] cannot be ordered by IC50: under 0.1 µM for the first, under 0.1 µM for the second.

`CCc1nn(CCCOC(C)=O)c2c1C(=O)NCC1(CCOCC1)C2` [Example 6, 3-(3-ethyl-4-oxo-spiro[6,8-dihydro-5H-pyrazolo[4,3-c]azepine-7,4′-tetrahydropyran]-1-yl)propyl acetate] and `CCc1nn(CCCOC(=O)C(C)C)c2c1C(=O)NCC1(CCOCC1)C2` [Example 7, 3-(3-ethyl-4-oxo-spiro[6,8-dihydro-5H-pyrazolo[4,3-c]azepine-7,4′-tetrahydropyran]-1-yl)propyl 2-methylpropanoate] fall in the same range of IC50: 0.1 to 0.5 µM for the first, 0.1 to 0.5 µM for the second.

First: CCc1nn(CCCOC(=O)CCOC)c2c1C(=O)NCC1(CCOCC1)C2 [Example 8, 3-(3-ethyl-4-oxo-spiro[6,8-dihydro-5H-pyrazolo[4,3-c]azepine-7,4′-tetrahydropyran]-1-yl)propyl 3-methoxypropanoate]
Second: CCc1nn(CCCOC(=O)CCSC)c2c1C(=O)NCC1(CCOCC1)C2 [Example 13, 3-(3-ethyl-4-oxo-spiro[6,8-dihydro-5H-pyrazolo[4,3-c]azepine-7,4′-tetrahydropyran]-l-yl)propyl 3-methylsulfanylpropanoate]
The IC50 of the first is higher: over 0.5 µM for the first, 0.1 to 0.5 µM for the second. The second is the more potent here.

Compared with `CCc1nn(CCCOC(=O)C2CCCC2)c2c1C(=O)NCC1(CCOCC1)C2` [Example 9, 3-(3-ethyl-4-oxo-spiro[6,8-dihydro-5H-pyrazolo[4,3-c]azepine-7,4′-tetrahydropyran]-1-yl)propyl cyclopentanecarboxylate], `CCc1nn(CCCOC(=O)[C@H]2CC[C@@H](O)CC2)c2c1C(=O)NCC1(CCOCC1)C2` [Example 21, 3-(3-ethyl-4-oxo-spiro[6,8-dihydro-5H-pyrazolo[4,3-c]azepine-7,4′-tetrahydropyran]-1-yl)propyl cis-4-hydroxycyclohexane-carboxylate] is higher in IC50: under 0.1 µM for the first, 0.1 to 0.5 µM for the second. The first is the more potent here.

`CCc1nn(CCCOC(=O)C2CC(O)C2)c2c1C(=O)NCC1(CCOCC1)C2` (stereo not drawn) [Example 10, 3-(3-ethyl-4-oxo-spiro[6,8-dihydro-5H-pyrazolo[4,3-c]azepine-7,4′-tetrahydropyran]-1-yl)propyl 3-hydroxycyclobutane-carboxylate] and `CCc1nn(CCCOC(=O)[C@H]2CC[C@H](O)CC2)c2c1C(=O)NCC1(CCOCC1)C2` [Example 22, 3-(3-ethyl-4-oxo-spiro[6,8-dihydro-5H-pyrazolo[4,3-c]azepine-7,4′-tetrahydropyran]-1-yl)propyl trans-4-hydroxycyclohexane-carboxylate] fall in the same range of IC50: 0.1 to 0.5 µM for the first, 0.1 to 0.5 µM for the second.

Compared with `CCc1nn(CCCOC(=O)C(CC)CC)c2c1C(=O)NCC1(CCOCC1)C2` [Example 11, 3-(3-ethyl-4-oxo-spiro[6,8-dihydro-5H-pyrazolo[4,3-c]azepine-7,4′-tetrahydropyran]-1-yl)propyl 2-ethylbutanoate], `CCc1nn(CCCOC(=O)COC(C)C)c2c1C(=O)NCC1(CCOCC1)C2` [Example 12, 3-(3-ethyl-4-oxo-spiro[6,8-dihydro-5H-pyrazolo[4,3-c]azepine-7,4′-tetrahydropyran]-1-yl)propyl 2-isopropoxyacetate] is higher in IC50: under 0.1 µM for the first, over 0.5 µM for the second. The first is the more potent here.

First: CCc1nn(CCCOC(=O)C2CC(F)(F)C2)c2c1C(=O)NCC1(CCOCC1)C2 [Example 14, 3-(3-ethyl-4-oxo-spiro[6,8-dihydro-5H-pyrazolo[4,3-c]azepine-7,4’-tetrahydropyran]-1-yl)propyl 3,3-difluorocyclobutane-carboxylate]
Second: CCc1nn(CCCOC(=O)c2cccc(F)c2)c2c1C(=O)NCC1(CCOCC1)C2 [Example 18, 3-(3-ethyl-4-oxo-spiro[6,8-dihydro-5H-pyrazolo[4,3-c]azepine-7,4′-tetrahydropyran]-1-yl)propyl 3-fluorobenzoate]
The IC50 of the first is higher: 0.1 to 0.5 µM for the first, under 0.1 µM for the second.

`CCc1nn(CCCOC(=O)c2ccccc2C)c2c1C(=O)NCC1(CCOCC1)C2` [Example 16, 3-(3-ethyl-4-oxo-spiro[6,8-dihydro-5H-pyrazolo[4,3-c]azepine-7,4′-tetrahydropyran]-1-yl)propyl 2-methylbenzoate] and `CCc1nn(CCCOC(=O)c2ccccc2O)c2c1C(=O)NCC1(CCOCC1)C2` [Example 17, 3-(3-ethyl-4-oxo-spiro[6,8-dihydro-5H-pyrazolo[4,3-c]azepine-7,4′-tetrahydropyran]-1-yl)propyl 2-hydroxybenzoate] cannot be ordered by IC50: under 0.1 µM for the first, under 0.1 µM for the second.

`CCc1nn(CCCOC(=O)c2ccccc2F)c2c1C(=O)NCC1(CCOCC1)C2` [Example 19, 3-(3-ethyl-4-oxo-spiro[6,8-dihydro-5H-pyrazolo[4,3-c]azepine-7,4′-tetrahydropyran]-1-yl)propyl 2-fluorobenzoate] and `CCc1nn(CCCOC(=O)c2cccc(C#N)c2)c2c1C(=O)NCC1(CCOCC1)C2` [Example 23, 3-(3-ethyl-4-oxo-spiro[6,8-dihydro-5H-pyrazolo[4,3-c]azepine-7,4′-tetrahydropyran]-1-yl)propyl 3-cyanobenzoate] cannot be ordered by IC50: under 0.1 µM for the first, under 0.1 µM for the second.
